Laboratory results taken from ChEMBL document CHEMBL4800722, “Data for DCP probe BI 605906” (2021).

What was measured:
[1] = target: Serine/threonine-protein kinase greatwall (Homo sapiens) (UniProt Q96GX5); test: MASTL Invitrogen Lab (UK) kinase screen (BI); conditions: Compound concentration 1.0 uM
[2] = target: Serine/threonine-protein kinase SIK3 (Homo sapiens) (UniProt Q9Y2K2); test: SIK3 Invitrogen Lab (UK) kinase screen (BI); conditions: Compound concentration 1.0 uM
[3] = target: Homeodomain-interacting protein kinase 4 (Homo sapiens) (UniProt Q8NE63); test: HIPK4 Invitrogen Lab (UK) kinase screen (BI); conditions: Compound concentration 1.0 uM
[4] = target: Tyrosine-protein kinase Lyn (Homo sapiens) (UniProt P07948); test: LYN B Invitrogen Lab (UK) kinase screen (BI); conditions: Compound concentration 1.0 uM
Chain of Tyrosine-protein kinase Lyn (Homo sapiens) (P07948 2-512 limits assumed): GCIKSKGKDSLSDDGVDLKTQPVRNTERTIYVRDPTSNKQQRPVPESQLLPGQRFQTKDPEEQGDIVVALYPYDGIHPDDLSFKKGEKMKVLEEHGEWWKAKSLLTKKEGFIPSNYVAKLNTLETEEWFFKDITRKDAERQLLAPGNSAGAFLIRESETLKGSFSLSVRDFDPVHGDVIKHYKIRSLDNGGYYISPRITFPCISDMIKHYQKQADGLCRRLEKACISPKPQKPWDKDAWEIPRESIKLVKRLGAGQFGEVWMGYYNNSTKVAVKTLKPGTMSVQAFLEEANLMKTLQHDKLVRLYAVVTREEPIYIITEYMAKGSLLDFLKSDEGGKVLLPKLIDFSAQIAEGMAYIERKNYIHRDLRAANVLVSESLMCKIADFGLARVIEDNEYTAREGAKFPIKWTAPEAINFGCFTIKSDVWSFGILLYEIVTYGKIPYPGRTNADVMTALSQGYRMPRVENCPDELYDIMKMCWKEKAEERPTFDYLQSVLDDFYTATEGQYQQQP

[5] = target: Dual specificity mitogen-activated protein kinase kinase 1 (Homo sapiens) (UniProt Q02750); test: MAP2K1 Invitrogen Lab (UK) kinase screen (BI)
Chain of Dual specificity mitogen-activated protein kinase kinase 1 (Homo sapiens) (Q02750 whole entry): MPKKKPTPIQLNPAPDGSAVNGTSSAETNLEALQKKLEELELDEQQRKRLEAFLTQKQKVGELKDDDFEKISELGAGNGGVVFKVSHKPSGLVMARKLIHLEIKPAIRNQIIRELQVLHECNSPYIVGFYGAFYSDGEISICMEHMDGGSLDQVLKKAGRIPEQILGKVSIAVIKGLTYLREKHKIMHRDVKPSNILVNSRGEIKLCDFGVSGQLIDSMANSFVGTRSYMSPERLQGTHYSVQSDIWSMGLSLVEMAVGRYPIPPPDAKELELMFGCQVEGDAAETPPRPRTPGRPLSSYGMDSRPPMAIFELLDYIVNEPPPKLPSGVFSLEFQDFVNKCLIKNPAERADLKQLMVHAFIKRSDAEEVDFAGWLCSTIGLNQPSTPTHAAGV

[6] = target: Protein kinase C zeta type (Homo sapiens) (UniProt Q05513); test: PRKCZ Invitrogen Lab (UK) kinase screen (BI); conditions: Compound concentration 1.0 uM
[7] = target: Serine/threonine-protein kinase D1 (Homo sapiens) (UniProt Q15139); test: PRKD1 Invitrogen Lab (UK) kinase screen (BI); conditions: Compound concentration 1.0 uM
[8] = target: SRSF protein kinase 2 (Homo sapiens) (UniProt P78362); test: SRPK2 Invitrogen Lab (UK) kinase screen (BI); conditions: Compound concentration 1.0 uM
[9] = target: Serine/threonine-protein kinase 33 (Homo sapiens) (UniProt Q9BYT3); test: STK33 Invitrogen Lab (UK) kinase screen (BI); conditions: Compound concentration 1.0 uM
[10] = target: Aurora kinase B (Homo sapiens) (UniProt Q96GD4); test: AURORA B DUNDEE kinase screen (BI); conditions: Compound concentration 10.0 uM
[11] = target: Cyclin-dependent kinase 2/cyclin A (Homo sapiens) (UniProt P24941+P20248+P78396); test: CDK2/CYCLINA DUNDEE kinase screen (BI); format: protein-complex assay; conditions: Compound concentration 10.0 uM
[12] = target: Glycogen synthase kinase-3 beta (Homo sapiens) (UniProt P49841); test: GSK3B DUNDEE kinase screen (BI); conditions: Compound concentration 10.0 uM
[13] = target: Serine/threonine-protein kinase Nek6 (Homo sapiens) (UniProt Q9HC98); test: NEK6 DUNDEE kinase screen (BI); conditions: Compound concentration 10.0 uM
Chain of Serine/threonine-protein kinase Nek6 (Homo sapiens) (Q9HC98 whole entry): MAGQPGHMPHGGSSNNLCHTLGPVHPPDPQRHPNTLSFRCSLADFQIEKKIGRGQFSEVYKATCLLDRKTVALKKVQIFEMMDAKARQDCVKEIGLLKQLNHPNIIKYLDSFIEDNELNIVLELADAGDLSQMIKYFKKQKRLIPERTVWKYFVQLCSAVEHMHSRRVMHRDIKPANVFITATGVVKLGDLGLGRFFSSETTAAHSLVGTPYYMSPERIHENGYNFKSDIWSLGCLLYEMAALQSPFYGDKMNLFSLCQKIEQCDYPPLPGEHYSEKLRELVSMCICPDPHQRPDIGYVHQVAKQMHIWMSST

[14] = target: Serine/threonine-protein kinase Nek7 (Homo sapiens) (UniProt Q8TDX7); test: NEK7 DUNDEE kinase screen (BI); conditions: Compound concentration 10.0 uM
[15] = target: Rho-associated protein kinase 2 (Homo sapiens) (UniProt O75116); test: ROCKII DUNDEE kinase screen (BI); conditions: Rattus norvegicus; Compound concentration 10.0 uM
[16] = target: 5-hydroxytryptamine receptor 1A (Homo sapiens) (UniProt P08908); conditions: Compound concentration 10.0 uM
[17] = target: Mu-type opioid receptor (Homo sapiens) (UniProt P35372); conditions: Compound concentration 10.0 uM
[18] = target: Histamine H1 receptor (Homo sapiens) (UniProt P35367); conditions: Compound concentration 10.0 uM
[19] = target: Histamine H3 receptor (Homo sapiens) (UniProt Q9Y5N1); conditions: Compound concentration 10.0 uM
[20] = target: Sigma non-opioid intracellular receptor 1 (Homo sapiens) (UniProt Q99720); conditions: Compound concentration 10.0 uM
[21] = target: B1 bradykinin receptor (Homo sapiens) (UniProt P46663)
Chain of B1 bradykinin receptor (Homo sapiens) (P46663 whole entry): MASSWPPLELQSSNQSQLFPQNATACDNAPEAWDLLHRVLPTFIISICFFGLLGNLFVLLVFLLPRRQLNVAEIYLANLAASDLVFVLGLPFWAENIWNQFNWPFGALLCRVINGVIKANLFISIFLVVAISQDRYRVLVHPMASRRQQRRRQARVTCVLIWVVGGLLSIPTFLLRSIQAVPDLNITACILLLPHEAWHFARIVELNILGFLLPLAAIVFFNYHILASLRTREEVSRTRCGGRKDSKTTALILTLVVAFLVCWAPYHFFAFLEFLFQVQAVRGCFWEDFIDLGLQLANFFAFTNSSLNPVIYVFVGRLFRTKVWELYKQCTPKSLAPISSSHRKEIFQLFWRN

[22] = target: Calcitonin-gene-related peptide receptor, CALCRL/RAMP1 (Homo sapiens) (UniProt O60894+Q16602)
[23] = target: Endothelin-converting enzyme 1 (Homo sapiens) (UniProt P42892); conditions: Compound concentration 10.0 uM
[24] = target: Neutrophil elastase (Homo sapiens) (UniProt P08246); conditions: Compound concentration 10.0 uM
[25] = target: Nicotinic Acetylcholine Receptor (Homo sapiens) (UniProt P02708+P07510+P11230+P17787+P30926+P32297+P43681+Q07001+Q15822+Q9UGM1+Q15825+P30532+Q04844+P36544+Q9GZZ6+Q05901); conditions: Compound concentration 10.0 uM
[26] = target: Serine/threonine-protein kinase ULK3 (Homo sapiens) (UniProt Q6PHR2); conditions: Compound concentration 1.0 uM
[27] = target: RAC-beta serine/threonine-protein kinase (Homo sapiens) (UniProt P31751); conditions: Compound concentration 1.0 uM
[28] = target: Casein kinase I isoform gamma-2 (Homo sapiens) (UniProt P78368)
Chain of Casein kinase I isoform gamma-2 (Homo sapiens) (P78368 whole entry, looked up, canonical isoform): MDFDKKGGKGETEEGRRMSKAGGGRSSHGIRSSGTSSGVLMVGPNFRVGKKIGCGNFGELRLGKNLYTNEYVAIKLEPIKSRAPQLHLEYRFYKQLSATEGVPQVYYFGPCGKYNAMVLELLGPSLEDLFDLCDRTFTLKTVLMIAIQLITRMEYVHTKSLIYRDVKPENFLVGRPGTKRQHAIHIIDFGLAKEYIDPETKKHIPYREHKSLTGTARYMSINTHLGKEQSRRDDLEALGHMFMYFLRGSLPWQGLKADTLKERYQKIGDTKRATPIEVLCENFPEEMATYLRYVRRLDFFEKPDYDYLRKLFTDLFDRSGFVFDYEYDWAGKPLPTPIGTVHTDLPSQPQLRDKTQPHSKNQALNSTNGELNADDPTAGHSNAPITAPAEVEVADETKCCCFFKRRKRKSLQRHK

[29] = target: Ephrin type-A receptor 2 (Homo sapiens) (UniProt P29317)
Chain of Ephrin type-A receptor 2 (Homo sapiens) (P29317 whole entry): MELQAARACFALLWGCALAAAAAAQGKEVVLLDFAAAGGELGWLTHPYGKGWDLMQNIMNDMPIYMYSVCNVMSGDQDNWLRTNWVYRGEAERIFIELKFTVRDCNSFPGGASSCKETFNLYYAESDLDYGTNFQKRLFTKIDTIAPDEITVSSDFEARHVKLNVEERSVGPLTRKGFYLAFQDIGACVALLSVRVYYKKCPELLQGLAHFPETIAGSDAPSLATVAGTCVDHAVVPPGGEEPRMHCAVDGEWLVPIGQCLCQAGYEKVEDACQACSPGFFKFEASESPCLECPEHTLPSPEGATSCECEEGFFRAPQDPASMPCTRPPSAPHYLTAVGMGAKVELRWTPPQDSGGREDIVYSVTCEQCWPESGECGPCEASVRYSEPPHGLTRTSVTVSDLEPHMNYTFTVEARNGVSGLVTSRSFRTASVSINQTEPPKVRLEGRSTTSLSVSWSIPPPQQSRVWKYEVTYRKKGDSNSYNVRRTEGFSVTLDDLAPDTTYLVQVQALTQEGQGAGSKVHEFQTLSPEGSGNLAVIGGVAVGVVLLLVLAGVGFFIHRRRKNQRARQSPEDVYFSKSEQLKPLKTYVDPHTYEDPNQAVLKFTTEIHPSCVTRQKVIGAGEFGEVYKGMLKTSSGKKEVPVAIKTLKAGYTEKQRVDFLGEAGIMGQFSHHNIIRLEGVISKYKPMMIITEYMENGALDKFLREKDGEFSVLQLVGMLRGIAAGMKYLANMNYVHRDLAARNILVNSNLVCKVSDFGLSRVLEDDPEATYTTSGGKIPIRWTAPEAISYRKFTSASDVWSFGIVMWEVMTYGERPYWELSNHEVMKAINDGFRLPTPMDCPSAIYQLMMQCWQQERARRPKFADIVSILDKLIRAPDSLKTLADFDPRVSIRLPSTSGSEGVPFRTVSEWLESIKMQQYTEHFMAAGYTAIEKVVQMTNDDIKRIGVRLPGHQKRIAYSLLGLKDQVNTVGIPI

[30] = target: Tyrosine-protein kinase HCK (Homo sapiens) (UniProt P08631); conditions: Compound concentration 1.0 uM
[31] = target: LIM domain kinase 1 (Homo sapiens) (UniProt P53667); conditions: Compound concentration 1.0 uM
[32] = target: Tyrosine-protein kinase Lyn (Homo sapiens) (UniProt P07948); conditions: Compound concentration 1.0 uM
[33] = target: Mitogen-activated protein kinase kinase kinase 11 (Homo sapiens) (UniProt Q16584); conditions: Compound concentration 1.0 uM
[34] = target: Mitogen-activated protein kinase kinase kinase 8 (Homo sapiens) (UniProt P41279); conditions: Compound concentration 1.0 uM
[35] = target: MAP kinase-activated protein kinase 5 (Homo sapiens) (UniProt Q8IW41); conditions: Compound concentration 1.0 uM
[36] = target: MAP/microtubule affinity-regulating kinase 4 (Homo sapiens) (UniProt Q96L34); conditions: Compound concentration 1.0 uM
[37] = target: Macrophage-stimulating protein receptor (Homo sapiens) (UniProt Q04912); conditions: Compound concentration 1.0 uM
[38] = target: Serine/threonine-protein kinase PLK1 (Homo sapiens) (UniProt P53350)
Chain of Serine/threonine-protein kinase PLK1 (Homo sapiens) (P53350 whole entry): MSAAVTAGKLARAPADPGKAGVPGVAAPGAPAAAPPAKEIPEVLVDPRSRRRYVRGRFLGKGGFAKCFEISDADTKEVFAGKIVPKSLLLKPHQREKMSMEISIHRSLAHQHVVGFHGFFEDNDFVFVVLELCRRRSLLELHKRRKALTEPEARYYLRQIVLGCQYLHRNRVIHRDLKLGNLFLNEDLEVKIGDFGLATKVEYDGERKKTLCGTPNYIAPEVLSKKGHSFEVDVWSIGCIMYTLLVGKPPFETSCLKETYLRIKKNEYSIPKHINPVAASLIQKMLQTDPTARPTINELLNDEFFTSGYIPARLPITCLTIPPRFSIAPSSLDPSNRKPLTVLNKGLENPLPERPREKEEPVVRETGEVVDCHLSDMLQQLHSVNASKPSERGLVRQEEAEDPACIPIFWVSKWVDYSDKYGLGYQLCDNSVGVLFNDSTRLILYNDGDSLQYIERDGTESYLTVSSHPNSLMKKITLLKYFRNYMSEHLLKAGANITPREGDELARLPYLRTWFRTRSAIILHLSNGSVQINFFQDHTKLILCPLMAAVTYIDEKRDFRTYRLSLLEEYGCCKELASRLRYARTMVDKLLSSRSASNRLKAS

[39] = target: cAMP-dependent protein kinase catalytic subunit alpha (Homo sapiens) (UniProt P17612)
[40] = target: Protein kinase C theta type (Homo sapiens) (UniProt Q04759); conditions: Compound concentration 1.0 uM
Chain of Protein kinase C theta type (Homo sapiens) (Q04759 whole entry, looked up): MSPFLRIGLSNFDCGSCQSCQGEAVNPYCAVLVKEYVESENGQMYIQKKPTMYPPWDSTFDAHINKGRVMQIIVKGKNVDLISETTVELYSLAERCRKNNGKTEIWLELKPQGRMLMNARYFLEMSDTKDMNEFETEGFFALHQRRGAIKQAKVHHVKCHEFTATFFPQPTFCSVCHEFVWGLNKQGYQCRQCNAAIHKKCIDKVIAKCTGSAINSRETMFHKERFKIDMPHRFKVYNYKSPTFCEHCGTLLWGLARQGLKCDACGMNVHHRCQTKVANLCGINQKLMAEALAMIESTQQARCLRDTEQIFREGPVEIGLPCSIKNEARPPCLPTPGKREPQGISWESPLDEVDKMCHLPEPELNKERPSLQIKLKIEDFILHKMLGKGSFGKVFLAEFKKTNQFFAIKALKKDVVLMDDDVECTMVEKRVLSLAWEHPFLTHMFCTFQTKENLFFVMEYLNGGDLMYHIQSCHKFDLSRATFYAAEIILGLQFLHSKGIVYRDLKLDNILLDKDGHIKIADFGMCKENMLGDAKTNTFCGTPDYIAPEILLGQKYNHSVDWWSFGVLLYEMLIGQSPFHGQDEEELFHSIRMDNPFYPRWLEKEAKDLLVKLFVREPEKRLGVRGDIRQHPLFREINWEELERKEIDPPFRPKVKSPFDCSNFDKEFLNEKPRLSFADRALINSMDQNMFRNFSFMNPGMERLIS

[41] = target: Focal adhesion kinase 1 (Homo sapiens) (UniProt Q05397); conditions: Compound concentration 1.0 uM
[42] = target: Ribosomal protein S6 kinase beta-1 (Homo sapiens) (UniProt P23443)
Chain of Ribosomal protein S6 kinase beta-1 (Homo sapiens) (P23443 whole entry, looked up): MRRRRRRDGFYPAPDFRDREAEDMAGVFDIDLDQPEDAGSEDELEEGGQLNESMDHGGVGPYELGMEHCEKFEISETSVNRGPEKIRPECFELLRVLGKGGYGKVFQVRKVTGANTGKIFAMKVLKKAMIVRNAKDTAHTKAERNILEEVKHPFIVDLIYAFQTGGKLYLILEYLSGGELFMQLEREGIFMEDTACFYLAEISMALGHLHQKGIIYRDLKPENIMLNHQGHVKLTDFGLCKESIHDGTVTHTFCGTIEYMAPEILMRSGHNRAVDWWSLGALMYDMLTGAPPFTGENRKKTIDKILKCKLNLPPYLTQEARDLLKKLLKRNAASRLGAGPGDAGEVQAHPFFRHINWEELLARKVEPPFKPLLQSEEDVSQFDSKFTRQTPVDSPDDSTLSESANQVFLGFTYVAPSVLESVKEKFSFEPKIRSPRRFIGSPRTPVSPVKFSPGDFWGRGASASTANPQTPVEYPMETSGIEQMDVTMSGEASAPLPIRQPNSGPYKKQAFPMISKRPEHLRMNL

[43] = Compound concentration 100.0 uM

CCC(F)(F)c1cc(N2CCC(S(C)(=O)=O)CC2)nc2sc(C(N)=O)c(N)c12 [BI-605906]
residual activity [1]: 85% | residual activity [2]: 79% | residual activity [3]: 77% | residual activity [4]: 78% | residual activity ([5]; Compound concentration 1.0 uM): 76% | residual activity ([5]; Compound concentration 10.0 uM): 80% | residual activity [6]: 112% | residual activity [7]: 83% | residual activity [8]: 103% | residual activity [9]: 88% | residual activity [10]: 60.9% | residual activity [11]: 78% | residual activity [12]: 74.4% | residual activity [13]: 83.3% | residual activity [14]: 104% | residual activity [15]: 40.1% | inhibition [16]: 14.4% | inhibition [17]: 5.18% | inhibition [18]: 9.22% | inhibition [19]: 0.2% | inhibition [20]: 8.89% | residual activity ([21]; Compound concentration 10.0 uM): 93% | residual activity [21, 43]: 108% | residual activity ([22]; Compound concentration 10.0 uM): 99% | residual activity [22, 43]: 96% | residual activity [23]: 82% | residual activity [24]: 98% | residual activity [25]: 101% | residual activity [26]: 95% | residual activity [27]: 95% | residual activity ([28]; Compound concentration 1.0 uM): 96% | residual activity ([28]; Compound concentration 10.0 uM): 94% | residual activity ([29]; Compound concentration 1.0 uM): 93% | residual activity ([29]; Compound concentration 10.0 uM): 63% | residual activity [30]: 90% | residual activity [31]: 97% | residual activity [32]: 82% | residual activity [33]: 95% | residual activity [34]: 90% | residual activity [35]: 92% | residual activity [36]: 100% | residual activity [37]: 105% | residual activity ([38]; Compound concentration 1.0 uM): 94% | residual activity ([38]; Compound concentration 10.0 uM): 109% | residual activity ([39]; Compound concentration 1.0 uM): 98% | residual activity ([39]; Compound concentration 10.0 uM): 71% | residual activity [40]: 101% | residual activity [41]: 87% | residual activity ([42]; Compound concentration 1.0 uM): 94% | residual activity ([42]; Compound concentration 10.0 uM): 66%
